{"source": "PubChem BioAssay (NCI)", "assay_in_all_cases": "DTP human tumour cell line panel, 48 h", "key": {"HCT-15 colon": {"test_system": "HCT-15 colon"}, "MDA-N": {"test_system": "MDA-N"}, "UO-31 renal": {"test_system": "UO-31 renal"}, "SN12C renal": {"test_system": "SN12C renal"}, "DU-145 prostate": {"test_system": "DU-145 prostate"}, "SF-295 CNS": {"test_system": "SF-295 CNS"}, "A498 renal": {"test_system": "A498 renal"}, "NCI-H522 lung": {"test_system": "NCI-H522 lung"}, "786-0 renal": {"test_system": "786-0 renal"}, "OVCAR-4 ovarian": {"test_system": "OVCAR-4 ovarian"}, "T-47D breast": {"test_system": "T-47D breast"}, "EKVX NSCLC": {"test_system": "EKVX NSCLC"}, "HOP-92 NSCLC": {"test_system": "HOP-92 NSCLC"}, "OVCAR-5 ovarian": {"test_system": "OVCAR-5 ovarian"}, "COLO 205 colon": {"test_system": "COLO 205 colon"}, "SR leukemia": {"test_system": "SR leukemia"}, "SW-620 colon": {"test_system": "SW-620 colon"}, "SK-OV-3 ovarian": {"test_system": "SK-OV-3 ovarian"}, "HCT-116 colon": {"test_system": "HCT-116 colon"}, "SF-268 CNS": {"test_system": "SF-268 CNS"}, "K-562 leukemia": {"test_system": "K-562 leukemia"}, "CCRF-CEM leukemia": {"test_system": "CCRF-CEM leukemia"}, "RPMI-8226 leukemia": {"test_system": "RPMI-8226 leukemia"}, "HS 578T breast": {"test_system": "HS 578T breast"}, "UACC-62 melanoma": {"test_system": "UACC-62 melanoma"}, "SK-MEL-28 melanoma": {"test_system": "SK-MEL-28 melanoma"}, "CAKI-1 renal": {"test_system": "CAKI-1 renal"}, "HL-60(TB) leukemia": {"test_system": "HL-60(TB) leukemia"}, "SNB-75 CNS": {"test_system": "SNB-75 CNS"}, "MOLT-4 leukemia": {"test_system": "MOLT-4 leukemia"}, "MDA-MB-435": {"test_system": "MDA-MB-435"}, "M14 melanoma": {"test_system": "M14 melanoma"}, "NCI-H226 lung": {"test_system": "NCI-H226 lung"}, "MDA-MB-231 breast": {"test_system": "MDA-MB-231 breast"}, "NCI/ADR-RES ovarian": {"test_system": "NCI/ADR-RES ovarian"}, "OVCAR-8 ovarian": {"test_system": "OVCAR-8 ovarian"}, "SNB-19 CNS": {"test_system": "SNB-19 CNS"}, "LOX IMVI melanoma": {"test_system": "LOX IMVI melanoma"}, "RXF 393 renal": {"test_system": "RXF 393 renal"}, "MALME-3M melanoma": {"test_system": "MALME-3M melanoma"}, "BT-549 breast": {"test_system": "BT-549 breast"}, "SF-539 CNS": {"test_system": "SF-539 CNS"}, "NCI-H23 lung": {"test_system": "NCI-H23 lung"}, "TK-10 renal": {"test_system": "TK-10 renal"}, "IGROV1 ovarian": {"test_system": "IGROV1 ovarian"}, "PC-3 prostate": {"test_system": "PC-3 prostate"}, "KM12 colon": {"test_system": "KM12 colon"}, "MCF7 breast": {"test_system": "MCF7 breast"}, "A549 NSCLC": {"test_system": "A549 NSCLC"}, "NCI-H460 lung": {"test_system": "NCI-H460 lung"}, "HCC-2998 colon": {"test_system": "HCC-2998 colon"}, "U251 CNS": {"test_system": "U251 CNS"}, "HT29 colon": {"test_system": "HT29 colon"}, "ACHN renal": {"test_system": "ACHN renal"}, "HOP-62 NSCLC": {"test_system": "HOP-62 NSCLC"}, "UACC-257 melanoma": {"test_system": "UACC-257 melanoma"}, "OVCAR-3 ovarian": {"test_system": "OVCAR-3 ovarian"}, "SK-MEL-2 melanoma": {"test_system": "SK-MEL-2 melanoma"}, "SK-MEL-5 melanoma": {"test_system": "SK-MEL-5 melanoma"}}, "note": "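These data come from cells grown in 96-well plates and exposed to compound for 48 hours at five concentrations. At the TGI there is no net growth.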", "data": [{"smiles": "CC(C)CNC(=O)c1c(NC(=O)c2ccccc2)sc2[nH]c(=O)n(-c3ccccc3)c(=O)c12", "values": [{"measurement": "TGI", "setting": "HCT-15 colon", "result": "> 100", "unit": "µM"}, {"measurement": "TGI", "setting": "MDA-N", "result": "> 100", "unit": "µM"}, {"measurement": "TGI", "setting": "UO-31 renal", "result": "> 100", "unit": "µM"}, {"measurement": "TGI", "setting": "SN12C renal", "result": "> 100", "unit": "µM"}, {"measurement": "TGI", "setting": "DU-145 prostate", "result": "> 100", "unit": "µM"}, {"measurement": "TGI", "setting": "SF-295 CNS", "result": 67.1, "unit": "µM"}, {"measurement": "TGI", "setting": "A498 renal", "result": "> 71.2", "unit": "µM"}, {"measurement": "TGI", "setting": "NCI-H522 lung", "result": "> 100", "unit": "µM"}, {"measurement": "TGI", "setting": "786-0 renal", "result": 53.6, "unit": "µM"}, {"measurement": "TGI", "setting": "OVCAR-4 ovarian", "result": "> 100", "unit": "µM"}, {"measurement": "TGI", "setting": "T-47D breast", "result": "> 100", "unit": "µM"}, {"measurement": "TGI", "setting": "EKVX NSCLC", "result": "> 100", "unit": "µM"}, {"measurement": "TGI", "setting": "HOP-92 NSCLC", "result": 19.7, "unit": "µM"}, {"measurement": "TGI", "setting": "OVCAR-5 ovarian", "result": "> 100", "unit": "µM"}, {"measurement": "TGI", "setting": "COLO 205 colon", "result": "> 100", "unit": "µM"}, {"measurement": "TGI", "setting": "SR leukemia", "result": "> 90.7", "unit": "µM"}, {"measurement": "TGI", "setting": "SW-620 colon", "result": "> 100", "unit": "µM"}, {"measurement": "TGI", "setting": "SK-OV-3 ovarian", "result": "> 81.2", "unit": "µM"}, {"measurement": "TGI", "setting": "HCT-116 colon", "result": "> 100", "unit": "µM"}, {"measurement": "TGI", "setting": "SF-268 CNS", "result": "> 100", "unit": "µM"}, {"measurement": "TGI", "setting": "K-562 leukemia", "result": "> 86.9", "unit": "µM"}, {"measurement": "TGI", "setting": "CCRF-CEM leukemia", "result": "> 89.6", "unit": "µM"}, {"measurement": "TGI", "setting": "RPMI-8226 leukemia", "result": "> 100", "unit": "µM"}, {"measurement": "TGI", "setting": "HS 578T breast", "result": "> 79.1", "unit": "µM"}, {"measurement": "TGI", "setting": "UACC-62 melanoma", "result": "> 100", "unit": "µM"}, {"measurement": "TGI", "setting": "SK-MEL-28 melanoma", "result": "> 100", "unit": "µM"}, {"measurement": "TGI", "setting": "CAKI-1 renal", "result": "> 80.9", "unit": "µM"}, {"measurement": "TGI", "setting": "HL-60(TB) leukemia", "result": "> 100", "unit": "µM"}, {"measurement": "TGI", "setting": "SNB-75 CNS", "result": 48.3, "unit": "µM"}, {"measurement": "TGI", "setting": "MOLT-4 leukemia", "result": "> 100", "unit": "µM"}, {"measurement": "TGI", "setting": "MDA-MB-435", "result": "> 100", "unit": "µM"}, {"measurement": "TGI", "setting": "M14 melanoma", "result": "> 100", "unit": "µM"}, {"measurement": "TGI", "setting": "NCI-H226 lung", "result": "> 100", "unit": "µM"}, {"measurement": "TGI", "setting": "MDA-MB-231 breast", "result": 52.6, "unit": "µM"}, {"measurement": "TGI", "setting": "NCI/ADR-RES ovarian", "result": "> 100", "unit": "µM"}, {"measurement": "TGI", "setting": "OVCAR-8 ovarian", "result": "> 100", "unit": "µM"}, {"measurement": "TGI", "setting": "SNB-19 CNS", "result": 75.8, "unit": "µM"}, {"measurement": "TGI", "setting": "LOX IMVI melanoma", "result": "> 100", "unit": "µM"}, {"measurement": "TGI", "setting": "RXF 393 renal", "result": 40, "unit": "µM"}, {"measurement": "TGI", "setting": "MALME-3M melanoma", "result": "> 100", "unit": "µM"}, {"measurement": "TGI", "setting": "BT-549 breast", "result": 77.4, "unit": "µM"}, {"measurement": "TGI", "setting": "SF-539 CNS", "result": "> 84", "unit": "µM"}, {"measurement": "TGI", "setting": "NCI-H23 lung", "result": "> 100", "unit": "µM"}, {"measurement": "TGI", "setting": "TK-10 renal", "result": 75, "unit": "µM"}, {"measurement": "TGI", "setting": "IGROV1 ovarian", "result": "> 100", "unit": "µM"}, {"measurement": "TGI", "setting": "PC-3 prostate", "result": "> 100", "unit": "µM"}, {"measurement": "TGI", "setting": "KM12 colon", "result": "> 100", "unit": "µM"}, {"measurement": "TGI", "setting": "MCF7 breast", "result": "> 100", "unit": "µM"}, {"measurement": "TGI", "setting": "A549 NSCLC", "result": "> 100", "unit": "µM"}, {"measurement": "TGI", "setting": "NCI-H460 lung", "result": "> 100", "unit": "µM"}, {"measurement": "TGI", "setting": "HCC-2998 colon", "result": "> 100", "unit": "µM"}, {"measurement": "TGI", "setting": "U251 CNS", "result": "> 100", "unit": "µM"}, {"measurement": "TGI", "setting": "HT29 colon", "result": "> 100", "unit": "µM"}, {"measurement": "TGI", "setting": "ACHN renal", "result": 61, "unit": "µM"}, {"measurement": "TGI", "setting": "HOP-62 NSCLC", "result": 49.1, "unit": "µM"}, {"measurement": "TGI", "setting": "UACC-257 melanoma", "result": "> 100", "unit": "µM"}, {"measurement": "TGI", "setting": "OVCAR-3 ovarian", "result": "> 100", "unit": "µM"}, {"measurement": "TGI", "setting": "SK-MEL-2 melanoma", "result": 68.6, "unit": "µM"}, {"measurement": "TGI", "setting": "SK-MEL-5 melanoma", "result": "> 100", "unit": "µM"}]}]}
